Source: US9029377B2, “Platelet-activating factor receptor antagonists” (Merck Sharp & Dohme Corp., priority 2009, dated 2015)

Each compound was assayed against PAFR (Homo sapiens, UniProt P25105) (assay: PAF Binding Assay (PAFR binding)).
Sequence of PAFR (P25105 whole entry): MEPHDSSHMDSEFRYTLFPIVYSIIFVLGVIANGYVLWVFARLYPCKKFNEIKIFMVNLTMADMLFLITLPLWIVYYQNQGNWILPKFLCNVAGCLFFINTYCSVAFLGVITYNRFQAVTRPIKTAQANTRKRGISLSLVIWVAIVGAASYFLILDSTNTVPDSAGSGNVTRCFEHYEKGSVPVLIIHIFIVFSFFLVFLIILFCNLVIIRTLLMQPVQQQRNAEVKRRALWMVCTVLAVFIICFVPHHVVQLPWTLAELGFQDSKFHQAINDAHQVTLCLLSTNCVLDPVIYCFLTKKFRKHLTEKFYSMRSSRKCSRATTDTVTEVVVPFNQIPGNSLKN
“2-ethyl-N-[(1S,3R)-3-(4H-1,2,4-triazol-4-yl)cyclohexyl]biphenyl-4-sulfonamide [Compound 2Af]” gave an IC50 of 15 nM.
Compound “3-(2-aminopyrimidin-4-yl)-N-[(1R,5S)-3,3-difluoro-5-(3-methyl-4H-1,2,4-triazol-4-yl)cyclohexyl]-5-(trifluoromethyl)benzenesulfonamide [Compound 9Ab]” has an IC50 of 15 nM.
“3-(2-cyclopropylpyrazolo[1,5-a]pyrimidin-7-yl)-N-[(1R,5S)-3,3-difluoro-5-(3-methyl-4H-1,2,4-triazol-4-yl)cyclohexyl]-5-(trifluoromethyl)benzenesulfonamide [Compound 9Af]” was tested, and the IC50 was 5.1 nM.
Work on “3-(2-cyclopropylpyrimidin-4-yl)-N-[(1R,5S)-3,3-difluoro-5-(3-methyl-4H-1,2,4-triazol-4-yl)cyclohexyl]-5-(trifluoromethyl)benzenesulfonamide [Compound 9Aa]” yielded an IC50 of 2.2 nM.
“3-[1,2,4]triazolo[1,5-a]pyrimidin-7-yl-N-[(1R,5S)-3,3-difluoro-5-(3-methyl-4H-1,2,4-triazol-4-yl)cyclohexyl]-5-(trifluoromethyl)benzenesulfonamide [Compound 9Ac]” was tested, and the IC50 was 86 nM.
Compound “3-bromo-N-[(1S,3R)-3-(4H-1,2,4-triazol-4-yl)cyclohexyl]-5-(trifluoromethyl)benzenesulfonamide [Compound 3b]” has an IC50 of 0.9 nM.
In the case of “3-ethyl-5-imidazo[1,2-a]pyridin-8-yl-N-[(1S,3R)-3-(4H-1,2,4-triazol-4-yl)cyclohexyl]-5-(trifluoromethyl)benzenesulfonamide [Compound 3Bau]”, the IC50 is reported as 0.8 nM.
Work on “3-isoxazol-5-yl-N-[(1R,5S)-3,3-difluoro-5-(3-methyl-4H-1,2,4-triazol-4-yl)cyclohexyl]-5-(trifluoromethyl)benzenesulfonamide [Compound 9Ad]” yielded an IC50 of 34 nM.
Work on “4-(5-cyclopropyl-1,2,4-oxadiazol-3-yl)-N-[(1R,5S)-3,3-difluoro-5-(4H-1,2,4-triazol-4-yl)cyclohexyl]-3-ethylbiphenyl-4-sulfonamide [Compound 2Cy]” yielded an IC50 of 7.3 nM.
In the case of “4′-(difluoromethoxy)-N-[(1R,5S)-3,3-difluoro-5-(4H-1,2,4-triazol-4-yl)cyclohexyl]-2-ethylbenzenesulfonamide [Compound 2Caf]”, the IC50 is reported as 12 nM.
With `O=S(=O)(N[C@H]1CCC[C@@H](c2cccnc2)C1)c1ccc(-c2noc(C3CC3)n2)cc1` (relative stereo) [Compound 8e, 4-(5-cyclopropyl-1,2,4-oxadiazol-3-yl)-N-(3-pyridin-cis-3-ylcyclohexyl)benzenesulfonamide] the IC50 was 1.9 nM.
With `CCc1cc(-c2cccc(F)c2)ccc1S(=O)(=O)N[C@H]1CCC[C@@H](n2cnnc2)C1` [2 Am, 3-ethyl-3′-fluoro-N-[(1S,3R)-3-(4H-1,2,4-triazol-4-yl)cyclohexyl]benzenesulfonamide] the IC50 was 33 nM.
In the case of `O=S(=O)(N[C@@H]1C[C@H](n2cnnc2)CC(F)(F)C1)c1ccc(-c2ccc(OCC(F)(F)F)nc2)c(F)c1` [2 Gf, N-[(1R,5S)-3,3-difluoro-5-(4H-1,2,4-triazol-4-yl)cyclohexyl]-3-fluoro-4-[6-(2,2,2-trifluoroethoxy)pyridin-3-yl]benzenesulfonamide], the IC50 is reported as 4.4 nM.
Work on `O=S(=O)(N[C@H]1CCC[C@@H](n2cnnc2)C1)c1ccc(-c2noc(C(F)(F)F)n2)cc1C1CC1` [2 Kb, 2-cyclopropyl-N-[(1S,3R)-3-(4H-1,2,4-triazol-4-yl)cyclohexyl]-4-[5-(trifluoromethyl)-1,2,4-oxadiazol-3-yl]benzenesulfonamide] yielded an IC50 of 16 nM.
In the case of `C=C(F)F.CCC(F)(F)c1nc(-c2ccc(S(=O)(=O)N[C@H]3CCC[C@@H](n4cnnc4)C3)c(C3CC3)c2)no1` [2 Kd, 2-cyclopropyl-4-[5-(1,1-difluoropropyl)-1,2,4-oxadiazol-3-yl]-N-[(1S,3R)-3-(4H-1,2,4-triazol-4-yl)cyclohexyl]benzenesulfonamide-1,1-difluoroethylene (1:1)], the IC50 is reported as 8.9 nM.
`O=S(=O)(N[C@H]1CCC[C@@H](n2cnnc2)C1)c1cc(C(F)(F)F)cc(C(F)(F)F)c1` [2 Mb, N-[(1S,3R)-3-(4H-1,2,4-triazol-4-yl)cyclohexyl]-3,5-bis(trifluoromethyl)benzenesulfonamide] was tested, and the IC50 was 280 nM.
`O=S(=O)(N[C@H]1CCC[C@@H](n2cnnc2)C1)c1cc(Cl)cc(Cl)c1` [2 Mh, 3,5-dichloro-N-[(1S,3R)-3-(4H-1,2,4-triazol-4-yl)cyclohexyl]benzenesulfonamide] was tested, and the IC50 was 194 nM.
Compound `O=S(=O)(N[C@H]1CCC[C@@H](n2cnnc2)C1)c1cc(-c2cncc3ccccc23)cc(C(F)(F)F)c1` [3 Ay, 3-isoquinolin-4-yl-N-[(1S,3R)-3-(4H-1,2,4-triazol-4-yl)cyclohexyl]-5-(trifluoromethyl)benzenesulfonamide] has an IC50 of 20 nM.
In the case of `O=S(=O)(N[C@@H]1C[C@H](n2cnnc2)CC(F)(F)C1)c1cc(-c2ccc(F)cc2)cc(C(F)(F)F)c1` [3 Cc], the IC50 is reported as 36 nM.
For `CCc1cc(-c2noc(C3CC3)n2)ccc1S(=O)(=O)N[C@H]1CCC[C@@H](n2cnnc2C(F)(F)F)C1` [Compound 2Aa, 4-(5-cyclopropyl-1,2,4-oxadiazol-3-yl)-2-ethyl-N-{(1S,3R)-3-[3-(trifluoromethyl)-4H-1,2,4-triazol-4-yl]cyclohexyl}benzenesulfonamide], the IC50 was 5.5 nM.
`CCc1cc(-c2ccccc2OC(F)(F)F)ccc1S(=O)(=O)N[C@H]1CCC[C@@H](n2cnnc2)C1` [Compound 2Aaa, 3-ethyl-N-[(1S,3R)-3-(4H-1,2,4-triazol-4-yl)cyclohexyl]2′-(trifluoromethoxy)biphenyl-4-sulfonamide] showed an IC50 of 44 nM.
`CCc1cc(-c2c(OC)cccc2OC(F)(F)F)ccc1S(=O)(=O)N[C@H]1CCC[C@@H](n2cnnc2)C1` [Compound 2Aab, 3-ethyl-2′-methoxy-N-[(1S,3R)-3-(4H-1,2,4-triazol-4-yl)cyclohexyl]-6′-(trifluoromethoxy)biphenyl-4-sulfonamide] gave an IC50 of 54 nM.
Compound `CCc1cc(-c2ccc(OC(F)(F)F)c(F)c2)ccc1S(=O)(=O)N[C@H]1CCC[C@@H](n2cnnc2)C1` [Compound 2Aac, 3-ethyl-3′-fluoro-N-[(1S,3R)-3-(4H-1,2,4-triazol-4-yl)cyclohexyl]-4′-(trifluoromethoxy)biphenyl-4-sulfonamide] has an IC50 of 13 nM.
In the case of `CCc1cc(-c2ccc(O)cc2)ccc1S(=O)(=O)N[C@H]1CCC[C@@H](n2cnnc2)C1` [Compound 2Aad, 3-ethyl-4′-hydroxy-N-[(1S,3R)-3-(4H-1,2,4-triazol-4-yl)cyclohexyl]biphenyl-4-sulfonamide], the IC50 is reported as 36 nM.
Work on `CCc1cc(-c2cccc3cccnc23)ccc1S(=O)(=O)N[C@H]1CCC[C@@H](n2cnnc2)C1` [Compound 2Aae, 2-ethyl-4-quinolin-8-yl-N-[(1S,3R)-3-(4H-1,2,4-triazol-4-yl)cyclohexyl]benzenesulfonamide] yielded an IC50 of 4.9 nM.
Compound `CCc1cc(-c2cccnc2O)ccc1S(=O)(=O)N[C@H]1CCC[C@@H](n2cnnc2)C1` [Compound 2Aag, 2-ethyl-4-(2-hydroxypyridin-3-yl)-N-[(1S,3R)-3-(4H-1,2,4-triazol-4-yl)cyclohexyl]benzenesulfonamide] has an IC50 of 167 nM.
`CCc1cc(-c2ccc(OC(C)C)nc2)ccc1S(=O)(=O)N[C@H]1CCC[C@@H](n2cnnc2)C1` [Compound 2Aai, 2-ethyl-4-(6-isopropoxypyridin-3-yl)-N-[(1S,3R)-3-(4H-1,2,4-triazol-4-yl)cyclohexyl]benzenesulfonamide] was tested, and the IC50 was 1.8 nM.
In the case of `CCc1cc(-c2ccc(OC(C)C)cc2)ccc1S(=O)(=O)N[C@H]1CCC[C@@H](n2cnnc2)C1` [Compound 2Aaj, 3-ethyl-4′-isopropoxy-N-[(1S,3R)-3-(4H-1,2,4-triazol-4-yl)cyclohexyl]biphenyl-4-sulfonamide], the IC50 is reported as 0.8 nM.
Compound `CCc1cc(-c2ccc(OCC(F)(F)F)nc2)ccc1S(=O)(=O)N[C@H]1CCC[C@@H](n2cnnc2)C1` [Compound 2Aak, 2-ethyl-N-[(1S,3R)-3-(4H-1,2,4-triazol-4-yl)cyclohexyl]-4-[6-(2,2,2-trifluoroethoxy)pyridin-3-yl]benzenesulfonamide] has an IC50 of 0.7 nM.
`CCc1cc(-c2ccc(F)nc2)ccc1S(=O)(=O)N[C@H]1CCC[C@@H](n2cnnc2)C1` [Compound 2Aam, 2-ethyl-4-(6-fluoropyridin-3-yl)-N-[(1S,3R)-3-(4H-1,2,4-triazol-4-yl)cyclohexyl]benzenesulfonamide] was tested, and the IC50 was 81 nM.
`CCc1cc(-c2cncc(OC)c2)ccc1S(=O)(=O)N[C@H]1CCC[C@@H](n2cnnc2)C1` [Compound 2Aan, 2-ethyl-4-(5-methoxypyridin-3-yl)-N-[(1S,3R)-3-(4H-1,2,4-triazol-4-yl)cyclohexyl]benzenesulfonamide] was tested, and the IC50 was 71 nM.
With `CCc1cc(-c2ccc(NC(C)=O)cc2)ccc1S(=O)(=O)N[C@H]1CCC[C@@H](n2cnnc2)C1` [Compound 2Aao, N′-[3′-ethyl-4′-({[(1S,3R)-3-(4H-1,2,4-triazol-4-yl)cyclohexyl]amino}sulfonyl)biphenyl-4-yl]acetamide] the IC50 was 57 nM.
`CCc1cc(-c2ccc(OC(C(F)(F)F)C(F)(F)F)cc2)ccc1S(=O)(=O)N[C@H]1CCC[C@@H](n2cnnc2)C1` [Compound 2Aap, 3-ethyl-N-[(1S,3R)-3-(4H-1,2,4-triazol-4-yl)cyclohexyl]-4′-[2,2,2-trifluoro-1-(trifluoromethyl)ethoxy]biphenyl-4-sulfonamide] showed an IC50 of 1.7 nM.
`CCc1cc(-c2ccc(OC3CCC3)nc2)ccc1S(=O)(=O)N[C@H]1CCC[C@@H](n2cnnc2)C1` [Compound 2Aaq, 4-[6-(cyclobutyloxy)pyridin-3-yl]-2-ethyl-N-[(1S,3R)-3-(4H-1,2,4-triazol-4-yl)cyclohexyl]benzenesulfonamide] gave an IC50 of 0.8 nM.
Compound `CCc1cc(-c2cc(Cl)cn3ccnc23)ccc1S(=O)(=O)N[C@H]1CCC[C@@H](n2cnnc2)C1` [Compound 2Aat, 4-(6-chloroimidazo[1,2-a]pyridin-8-yl)-2-ethyl-N-[(1S,3R)-3-(4H-1,2,4-triazol-4-yl)cyclohexyl]benzenesulfonamide] has an IC50 of 2.2 nM.
Work on `CCc1cc(-c2cnc3ccnn3c2)ccc1S(=O)(=O)N[C@H]1CCC[C@@H](n2cnnc2)C1` [Compound 2Aau, 2-ethyl-4-pyrazolo[1,5-a]pyrimidin-6-yl-N-[(1S,3R)-3-(4H-1,2,4-triazol-4-yl)cyclohexyl]benzenesulfonamide] yielded an IC50 of 244 nM.
